The test system of one data set is SH-SY5Y. The data set is described as follows: Neuroprotective activity against STZ induced cell death of human SH-SY5Y cells after 24 hrs by MTT assay. The format is functional, cell-based. In general terms: Formazan colour is commonly taken as a measure of viable cells.
In data set [1] the target is Amyloid-beta precursor protein (Homo sapiens) (UniProt P05067). Nature of the data set: Inhibition of STZ induced beta amyloid (unknown origin) deposition in HEK293 cells harboring APPSW mutant at 20 uM by ELISA. The format is cell-based. (An ELISA detects its analyte on a solid surface through an enzyme-linked reagent.)
Chain of Amyloid-beta precursor protein (Homo sapiens) (P05067 whole entry): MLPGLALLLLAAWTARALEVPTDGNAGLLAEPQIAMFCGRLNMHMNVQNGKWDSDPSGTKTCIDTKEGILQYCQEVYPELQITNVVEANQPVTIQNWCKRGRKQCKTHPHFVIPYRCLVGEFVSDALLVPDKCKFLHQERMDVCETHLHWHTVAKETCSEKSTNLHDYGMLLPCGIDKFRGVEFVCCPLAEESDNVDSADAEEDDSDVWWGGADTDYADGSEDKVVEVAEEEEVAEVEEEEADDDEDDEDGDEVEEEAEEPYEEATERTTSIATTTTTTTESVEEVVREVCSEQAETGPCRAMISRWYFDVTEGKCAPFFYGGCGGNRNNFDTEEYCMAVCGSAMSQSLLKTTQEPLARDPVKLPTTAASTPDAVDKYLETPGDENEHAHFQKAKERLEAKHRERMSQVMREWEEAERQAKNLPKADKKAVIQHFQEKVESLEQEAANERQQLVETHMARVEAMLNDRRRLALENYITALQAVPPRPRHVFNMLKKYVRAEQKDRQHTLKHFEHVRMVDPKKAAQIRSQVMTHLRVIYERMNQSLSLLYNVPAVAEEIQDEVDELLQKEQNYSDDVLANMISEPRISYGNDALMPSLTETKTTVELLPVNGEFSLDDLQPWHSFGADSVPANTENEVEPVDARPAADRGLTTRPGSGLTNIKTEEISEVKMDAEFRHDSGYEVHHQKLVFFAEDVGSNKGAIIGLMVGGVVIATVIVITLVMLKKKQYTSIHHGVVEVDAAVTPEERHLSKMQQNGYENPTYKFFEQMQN
For data set [2] the target is unchanged. Nature of the data set: Inhibition of STZ induced beta amyloid clearance in human SH-SY5Y cells by ELISA. The format is cell-based.
Data set [3] deals with Microtubule-associated protein tau (Homo sapiens) (UniProt P10636). Nature of the data set: Inhibition of STZ induced tau hyperphosphorylation at ser396 residues in human SH-SY5Y cells at 20 uM by immunohistochemical assay. Format: cell-based.
Chain of Microtubule-associated protein tau (Homo sapiens) (P10636 whole entry): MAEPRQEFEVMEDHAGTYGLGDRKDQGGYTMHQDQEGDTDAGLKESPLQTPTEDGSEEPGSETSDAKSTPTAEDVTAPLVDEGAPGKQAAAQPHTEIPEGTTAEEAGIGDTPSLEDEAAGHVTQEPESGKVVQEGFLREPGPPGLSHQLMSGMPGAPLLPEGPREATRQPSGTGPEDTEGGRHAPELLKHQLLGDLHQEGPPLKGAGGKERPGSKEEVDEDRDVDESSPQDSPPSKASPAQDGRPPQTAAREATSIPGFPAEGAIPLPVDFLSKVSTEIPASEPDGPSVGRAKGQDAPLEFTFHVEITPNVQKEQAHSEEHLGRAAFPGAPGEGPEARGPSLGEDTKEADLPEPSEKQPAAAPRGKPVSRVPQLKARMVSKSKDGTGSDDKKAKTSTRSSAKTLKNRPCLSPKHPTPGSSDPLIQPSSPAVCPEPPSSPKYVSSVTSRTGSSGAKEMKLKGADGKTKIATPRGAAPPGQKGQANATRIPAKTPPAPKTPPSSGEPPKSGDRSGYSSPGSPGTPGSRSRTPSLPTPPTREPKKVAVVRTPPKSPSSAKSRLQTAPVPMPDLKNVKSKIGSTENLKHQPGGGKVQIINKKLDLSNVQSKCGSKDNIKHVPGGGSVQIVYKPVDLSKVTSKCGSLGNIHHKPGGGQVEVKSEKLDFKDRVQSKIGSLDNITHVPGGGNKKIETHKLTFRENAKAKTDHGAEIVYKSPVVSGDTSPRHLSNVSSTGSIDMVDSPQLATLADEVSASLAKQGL
Data set [4] concerns Mus musculus. The data set is described as follows: Toxicity in APP1/PS1 transgenic mouse assessed as change in body weight at 15 to 30 mg/kg, ip administered 100 days. Format: organism-based. The settings on record: in vivo, 2400 h.
Data set [5] relates to Mus musculus. The data set is described as follows: Toxicity in APP1/PS1 transgenic mouse assessed as change in swimming speed at 15 to 30 mg/kg, ip administered 100 days. Conditions: in vivo, 2400 h. Format: organism-based.
Data set [6] concerns Mus musculus. The data set is described as follows: Toxicity in APP1/PS1 transgenic mouse assessed as effect on liver function at 15 to 30 mg/kg, ip administered 100 days. The format is organism-based. Conditions: in vivo, 2400 h.
For data set [7], the system named is Mus musculus. Nature of the data set: Antialzheimer activity in APP1/PS1 transgenic mouse assessed as decrease in prolonged path length at 30 mg/kg, ip administered 100 days prior to testing and measured at day 6 post continuous dosing by Morris water maze test. Format: functional, organism-based.
Data set [8] has as its system Mus musculus. Nature of the data set: Antialzheimer activity in APP1/PS1 transgenic mouse assessed as decrease in escape latencies at 30 mg/kg, ip administered 100 days prior to testing and measured at day 6 post continuous dosing by Morris water maze test. The format is functional, organism-based.

Calls of active or inactive are those of the source. The calls are words filed in the database; no cut-off is given here.

Usually EC50 stands for the concentration giving half of the maximal effect. A high value points to weaker potency. In turn, `COc1ccc(Cl)cc1N(CC(=O)NC1CCCCC1)S(=O)(=O)c1ccccc1` had an EC50 in the data set on SH-SY5Y of 17.6 µM.

Consider `COc1ccc(Cl)cc1N(CC(=O)NC12CC3CC(C)(CC(C)(C3)C1)C2)S(=O)(=O)c1ccc([N+](=O)[O-])cc1`, for which the EC50 in the data set with SH-SY5Y was greater than 20 µM. Turning to `COc1ccc(Cl)cc1N(CC(=O)NC12CC3CC(C)(CC(C)(C3)C1)C2)S(=O)(=O)c1ccc(Cl)cc1`, the EC50 in the data set with SH-SY5Y was greater than 20 µM. On to `CCN(CC)C(=O)CN(c1cc(Cl)ccc1OC)S(=O)(=O)c1ccccc1`, for which the concentration giving a half-maximal response (EC50) in the data set with SH-SY5Y was greater than 20 µM.

In the data set on SH-SY5Y, `Cc1ccc(N(CC(=O)NC23CC4CC(C)(CC(C)(C4)C2)C3)S(=O)(=O)c2ccccc2)cc1Cl` showed an EC50 of 8.86 µM. The same measure, in the same setting: next, `CC12CC3CC(C)(C1)CC(NC(=O)CN(C1CCCCC1)S(=O)(=O)c1ccccc1)(C3)C2`: greater than 20 µM. `COc1ccc(Cl)cc1N(CC(=O)N1CCCCC1)S(=O)(=O)c1ccccc1`: the inhibition result in [1] was “Active”. The compound further returned an EC50 in the data set with SH-SY5Y of 14.5 µM. With `CCn1c2ccccc2c2cc(NC(=O)CN(c3cc(Cl)ccc3OC)S(=O)(=O)c3ccccc3)ccc21`, the inhibition result in data set [1] and in data set [2] was “Active” throughout. The EC50 in the data set with SH-SY5Y turned out to be 0.25 µM. `COc1ccc(Cl)cc1N(CC(=O)NC12CC3CC(C)(CC(C)(C3)C1)C2)S(=O)(=O)c1ccc(C)cc1` yielded a concentration for a half-maximal effect (EC50) in the data set on SH-SY5Y greater than 20 µM.

In the data set on SH-SY5Y, `COc1ccc(Cl)cc1N(CC(=O)Nc1ccc2c(c1)c1ccccc1n2C)S(=O)(=O)c1ccccc1` displayed an EC50 of 1.32 µM. `COc1ccc(Cl)cc1N(CC(=O)N(C1CCCCC1)C1CCCCC1)S(=O)(=O)c1ccccc1` showed an EC50 in the data set on SH-SY5Y of 14.3 µM. `CCn1ccc2cc(NC(=O)CN(c3cc(Cl)ccc3OC)S(=O)(=O)c3ccccc3)ccc21` yielded an EC50 with SH-SY5Y of 2.22 µM.

In turn, `CC12CC3CC(C)(C1)CC(NC(=O)CN(c1ccc(Cl)cc1)S(=O)(=O)c1ccccc1)(C3)C2` displayed an EC50 with SH-SY5Y greater than 20 µM. Take `COc1ccc(Cl)cc1N(CC(=O)Nc1cccc2c3ccccc3n(C)c12)S(=O)(=O)c1ccccc1`: the inhibition result in data set [1] and in [2] was “Active” each time. For the same compound, the EC50 in the data set on SH-SY5Y stood at 3.18 µM. For `COc1ccc(Cl)cc1N(CC(=O)Nc1ccc(C(F)(F)F)cc1)S(=O)(=O)c1ccccc1`, the inhibition result in data set [3], in data set [1] and in data set [2] was “Active” throughout. The EC50 in the data set with SH-SY5Y came out at 3.75 µM. As to `COc1ccccc1NC(=O)CN(c1cc(Cl)ccc1OC)S(=O)(=O)c1ccccc1`, in the data set on SH-SY5Y, a half-maximal response (EC50) required 15.5 µM. The same measure, in the same setting: next, `CCCNC(=O)CN(c1cc(Cl)ccc1OC)S(=O)(=O)c1ccccc1`: greater than 20 µM; `COc1cccc(NC(=O)CN(c2cc(Cl)ccc2OC)S(=O)(=O)c2ccccc2)c1`: 17.6 µM.

In the case of `COc1ccc(Cl)cc1N(CC(=O)Nc1ccc2[nH]c3ccccc3c2c1)S(=O)(=O)c1ccccc1`, in the data set on SH-SY5Y, the EC50 came to 2.75 µM. As to `Cc1c(Cl)cccc1N(CC(=O)NC12CC3CC(C)(CC(C)(C3)C1)C2)S(=O)(=O)c1ccccc1`, the EC50 in the data set on SH-SY5Y is greater than 20 µM. On the same count and under the same terms, next, `COc1ccc(Cl)cc1N(CC(=O)Nc1cccc2ccccc12)S(=O)(=O)c1ccccc1`: 17.4 µM.

In turn, `COc1ccc(Cl)cc1N(CC(=O)Nc1ccc(Cl)cc1)S(=O)(=O)c1ccccc1` came in with an EC50 in the data set on SH-SY5Y greater than 20 µM.

Consider `COc1ccc(Cl)cc1N(CC(=O)NC12CC3CC(C)(CC(C)(C3)C1)C2)S(=O)(=O)c1ccccc1`, for which the inhibition entry in [3], in [1] and in data set [2] was “Active” throughout. The Activity result with Mus musculus [4], with Mus musculus [5] and with Mus musculus [6] was “Non-Toxic” throughout. The outcome with Mus musculus [7] and with Mus musculus [8] was Active. Besides, a half-maximal response in the data set on SH-SY5Y (EC50) required 0.22 µM.

Turning to `COc1ccc(Cl)cc1NC(=O)CN(c1cc(Cl)ccc1OC)S(=O)(=O)c1ccccc1`, the EC50 in the data set with SH-SY5Y is greater than 20 µM.

With `COc1ccc(NC(=O)CN(c2cc(Cl)ccc2OC)S(=O)(=O)c2ccccc2)cc1`, the concentration for a half-maximal effect (EC50) in the data set with SH-SY5Y came out at 16.2 µM. As to `COc1ccc(Cl)cc1N(CC(=O)Nc1ccccc1)S(=O)(=O)c1ccccc1`, in the data set on SH-SY5Y, the EC50 was greater than 20 µM. On to `CC12CC3CC(C)(C1)CC(NC(=O)CN(c1ccccc1Cl)S(=O)(=O)c1ccccc1)(C3)C2`, for which the response with SH-SY5Y was half-maximal at 16.1 µM (EC50). `CC12CC3CC(C)(C1)CC(NC(=O)CN(c1ccccc1)S(=O)(=O)c1ccccc1)(C3)C2`: in the data set with SH-SY5Y, the concentration giving a half-maximal response (EC50) is greater than 20 µM. Turning to `COc1ccc(Cl)cc1N(CC(=O)Nc1cccc2c1[nH]c1ccccc12)S(=O)(=O)c1ccccc1`, in the data set with SH-SY5Y, the EC50 turned out to be 6.56 µM. On to `COc1ccc(Cl)cc1N(CC(=O)Nc1ccc([N+](=O)[O-])cc1)S(=O)(=O)c1ccccc1`, for which the EC50 in the data set with SH-SY5Y is 8.21 µM.

On to `COc1ccc(NC(=O)CN(c2cc(Cl)ccc2OC)S(=O)(=O)c2ccccc2)cc1OC`, for which the EC50 with SH-SY5Y was greater than 20 µM. The compound `CC12CC3CC(C)(C1)CC(NC(=O)CN(c1cccc(Cl)c1)S(=O)(=O)c1ccccc1)(C3)C2` gave an EC50 in the data set with SH-SY5Y of 12.3 µM. On to `COc1ccc(CNC(=O)CN(c2cc(Cl)ccc2OC)S(=O)(=O)c2ccccc2)cc1`, for which the 50% effective concentration (EC50) with SH-SY5Y is greater than 20 µM.

In the data set on SH-SY5Y, `COc1ccc(Cl)cc1N(CC(=O)N1CCc2ccccc21)S(=O)(=O)c1ccccc1` came in with an EC50 greater than 20 µM. `COc1ccc(Cl)cc1N(CC(=O)NC12CC3CC(C)(CC(C)(C3)C1)C2)C(=O)c1ccccc1` showed a 50% effective concentration (EC50) in the data set on SH-SY5Y greater than 20 µM.

Values taken from ChEMBL document CHEMBL4145486, “Design, synthesis and biological evaluation of LX2343 derivatives as neuroprotective agents for the treatment of Alzheimer's disease” (Eur J Med Chem, 2018).
